Measurements as given in US11932658B2 (BRISTOL-MYERS SQUIBB COMPANY, priority 2016, dated 2024).

Target: T1, PAR4 (Homo sapiens, UniProt Q96RI0)
T1 construct: expressed in transfected cells; host or cells: HEK293 PAR4 Clone 1.2A (BMS Arctic ID 383940)
T1 sequence (Q96RI0 18-385): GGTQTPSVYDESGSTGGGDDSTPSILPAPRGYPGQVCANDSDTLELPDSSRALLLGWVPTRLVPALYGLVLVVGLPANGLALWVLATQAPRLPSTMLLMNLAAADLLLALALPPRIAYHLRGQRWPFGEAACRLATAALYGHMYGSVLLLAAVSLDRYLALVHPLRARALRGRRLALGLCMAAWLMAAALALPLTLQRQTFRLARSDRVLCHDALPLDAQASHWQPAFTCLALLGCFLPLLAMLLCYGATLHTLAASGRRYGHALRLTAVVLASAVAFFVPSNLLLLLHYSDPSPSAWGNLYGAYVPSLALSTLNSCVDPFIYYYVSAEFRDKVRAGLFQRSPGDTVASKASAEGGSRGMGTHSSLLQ
Assay: PAR4 FLIPR assay (antagonism of agonist peptide-induced calcium mobilization)
Type: cell-based
From the text: The FLIPR assay is an exemplary in vitro assay for measuring the activity of the PAR4 antagonists of the present invention. In this assay, intracellular calcium mobilization is induced in PAR4 expressing cells by a PAR4 agonist and calcium mobilization is monitored.
HEK293 cells stably expressing PAR4 were generated by a standard method of transfection of human PAR4 (F2R23) cDNA expression vector and selected based on PAR4 protein expression or mRNA expression. […] These cells also express endogenous PAR1 and can elicit calcium signal upon stimulation with PAR1 agonist peptide. Therefore, the same cells were also used to determine selectivity against PAR1 and agonist activity for both receptors. Cells from HEK293 PAR4 Clone 1.2A (BMS Arctic ID 383940) were propagated and used for calcium mobilization studies.
FLIPR-based calcium mobilization assay in HEK293 cells was used to measure PAR4 antagonism, agonism, and selectivity against PAR1. The activity of the PAR4 antagonists of the present invention were tested in PAR4 expressing cells by monitoring H-Ala-Phe(4-F)-Pro-Gly-Trp-Leu-Val-Lys-Asn-Gy-NH2-induced intracellular calcium mobilization. Counter screens for agonist activity and PAR1 antagonist activity were also performed. Briefly, PAR1/PAR4-expressing HEK293 cells were grown in DMEM (Life Technology, Grand Island, NY) containing 10% heat-inactivated FBS, 1% Penicillin-Streptomycin, 10 μg/mL blasticidin, and 100 μg/mL Zeocin at 37° C. with 5% CO2. Cells were plated overnight prior to the experiment in a black 384-well Purecoat Amine clear bottom plate (Becton Dickinson Biosciences, San Jose, CA) at 10,000 cells/well in 30 μL growth medium and incubated in a humidified chamber at 37° C. with 5% CO2 overnight. Prior to compound addition, the cell medium was replaced with 40 μL of 1× calcium and magnesium-containing Hank's Balanced Saline Solution (HBSS) (with 20 mM HEPES) and 1:1000 diluted fluorescent calcium indicator (Codex Biosolutions, Gaithersburg, MD). After a 30 minute incubation period at 37° C. and a further 30 minute incubation and equilibration period at room temperature, 20 μL test compound (diluted in 1×HBSS buffer) was added at various concentrations at 0.17% dimethyl sulfoxide (DMSO) final concentration. Changes in fluorescence intensity were measured using a Functional Drug Screening System (FDSS, Hamamatsu, Japan) to determine agonist activities. The cells were then incubated for 30 minutes at room temperature followed by addition of 20 μL of agonist peptide for antagonist activity measurement. […] Compound potency was derived from 11-point concentration-response curves.

Compound | IC50 [nM]
COc1cnc2c(-c3nc4c(Cl)cc5c(c4s3)OC[C@H](COC(=O)Nc3cncc(C#N)c3)O5)cc(C)cc2n1 [Example 37, (R)-(4-chloro-2-(2-methoxy-7-methylquinoxalin-5-yl)-7,8-dihydro-[1,4]dioxino[2′,3′:3,4]benzo[1,2-d]thiazol-7-yl)methyl (5-cyanopyridin-3-yl)carbamate] | 1.5
COc1cnc2c(-c3nc4c(Cl)cc5c(c4s3)OC[C@H](COC(=O)Nc3ccc4scnc4c3)O5)cc(C)cc2n1 [Example 39, (R)-(4-chloro-2-(2-methoxy-7-methylquinoxalin-5-yl)-7,8-dihydro-[1,4]dioxino[2′,3′:3,4]benzo[1,2-d]thiazol-7-yl)methyl benzo[d]thiazol-5-ylcarbamate] | 18
COc1cnc2c(-c3nc4c(Cl)cc5c(c4s3)OC[C@H](COC(=O)Nc3ccc4ncsc4c3)O5)cc(C)cc2n1 [Example 40, (R)-(4-chloro-2-(2-methoxy-7-methylquinoxalin-5-yl)-7,8-dihydro-[1,4]dioxino[2′,3′:3,4]benzo[1,2-d]thiazol-7-yl)methyl benzo[d]thiazol-6-ylcarbamate] | 97
COc1cnc2c(-c3nc4c(C)cc5c(c4s3)OC[C@H](COC(=O)Nc3ccc(F)nc3)O5)cc(C)cc2n1 [Example 41, (R)-(2-(2-methoxy-7-methylquinoxalin-5-yl)-4-methyl-7,8-dihydro-[1,4]dioxino[2′,3′:3,4]benzo[1,2-d]thiazol-7-yl)methyl (6-fluoropyridin-3-yl)carbamate] | 1.6
COc1cncc(NC(=O)OC[C@H]2COc3c(cc(C)c4nc(-c5cc(C)cc6nc(OC)cnc56)sc34)O2)c1 [Example 43, (R)-(2-(2-methoxy-7-methylquinoxalin-5-yl)-4-methyl-7,8-dihydro-[1,4]dioxino[2′,3′:3,4]benzo[1,2-d]thiazol-7-yl)methyl (5-methoxypyridin-3-yl)carbamate] | 7.9
COc1cnc2c(-c3nc4c(C)cc5c(c4s3)OC[C@H](COC(=O)Nc3cccc(C#N)c3)O5)cc(C)cc2n1 [Example 46, (R)-(2-(2-methoxy-7-methylquinoxalin-5-yl)-4-methyl-7,8-dihydro-[1,4]dioxino[2′,3′:3,4]benzo[1,2-d]thiazol-7-yl)methyl (3-cyanophenyl)carbamate] | 1
COc1cnc2c(-c3nc4c(C)cc5c(c4s3)OC[C@H](COC(=O)Nc3ccc(Cl)nc3)O5)cc(C)cc2n1 [Example 47, (R)-(2-(2-methoxy-7-methylquinoxalin-5-yl)-4-methyl-7,8-dihydro-[1,4]dioxino[2′,3′:3,4]benzo[1,2-d]thiazol-7-yl)methyl (6-chloropyridin-3-yl)carbamate] | 1.2
COc1cnc2c(-c3nc4c(C)cc5c(c4s3)OC[C@H](COC(=O)Nc3ccncc3)O5)cc(C)cc2n1 [Example 48, (R)-(2-(2-methoxy-7-methylquinoxalin-5-yl)-4-methyl-7,8-dihydro-[1,4]dioxino[2′,3′:3,4]benzo[1,2-d]thiazol-7-yl)methyl pyridin-4-ylcarbamate] | 25
COc1cnc2c(-c3nc4c(C)cc5c(c4s3)OC[C@H](COC(=O)Nc3ccc4scnc4c3)O5)cc(C)cc2n1 [Example 49, (R)-(2-(2-methoxy-7-methylquinoxalin-5-yl)-4-methyl-7,8-dihydro-[1,4]dioxino[2′,3′:3,4]benzo[1,2-d]thiazol-7-yl)methyl benzo[d]thiazol-5-ylcarbamate] | 49
COc1cnc2c(-c3nc4c(C)cc5c(c4s3)OC[C@H](COC(=O)Nc3ccc(-c4cccs4)nc3)O5)cc(C)cc2n1 [Example 53, (R)-(2-(2-methoxy-7-methylquinoxalin-5-yl)-4-methyl-7,8-dihydro-[1,4]dioxino [2′,3′:3,4]benzo[1,2-d]thiazol-7-yl)methyl (6-(thiophen-2-yl)pyridin-3-yl)carbamate] | 54
COc1cnc2c(-c3nc4c(C)cc5c(c4s3)OC[C@H](COC(=O)Nc3ccc(-n4cnc(C)n4)nc3)O5)cc(C)cc2n1 [Example 55, (R)-(2-(2-methoxy-7-methylquinoxalin-5-yl)-4-methyl-7,8-dihydro-[1,4]dioxino [2′,3′:3,4]benzo[1,2-d]thiazol-7-yl)methyl (6-(3-methyl-1H-1,2,4-triazol-1-yl)pyridin-3-yl)carbamate] | 21
COc1cnc2c(-c3nc4c(C)cc5c(c4s3)OC[C@H](COC(=O)Nc3ccc(C)nc3)O5)cc(C)cc2n1 [Example 56, (R)-(2-(2-methoxy-7-methylquinoxalin-5-yl)-4-methyl-7,8-dihydro-[1,4]dioxino[2′,3′:3,4]benzo[1,2-d]thiazol-7-yl)methyl (6-methylpyridin-3-yl)carbamate] | 1

Second part, the molecule after the results:

IC50 [nM] | Compound
1.3 | COc1cnc2c(-c3nc4c(C)cc5c(c4s3)OC[C@H](COC(=O)Nc3ccc(C#N)nc3)O5)cc(C)cc2n1 [Example 38, (R)-(2-(2-methoxy-7-methylquinoxalin-5-yl)-4-methyl-7,8-dihydro-[1,4]dioxino[2′,3′:3,4]benzo[1,2-d]thiazol-7-yl)methyl (6-cyanopyridin-3-yl)carbamate]
50 | COc1cnc2c(-c3nc4c(C)cc5c(c4s3)OC[C@H](COC(=O)Nc3cncc(F)c3)O5)cc(C)cc2n1 [Example 42, (R)-(2-(2-methoxy-7-methylquinoxalin-5-yl)-4-methyl-7,8-dihydro-[1,4]dioxino[2′,3′:3,4]benzo[1,2-d]thiazol-7-yl)methyl (5-fluoropyridin-3-yl)carbamate]
0.8 | COc1cnc2c(-c3nc4c(C)cc5c(c4s3)OC[C@H](COC(=O)Nc3ccnc(C)c3)O5)cc(C)cc2n1 [Example 44, (R)-(2-(2-methoxy-7-methylquinoxalin-5-yl)-4-methyl-7,8-dihydro-[1,4]dioxino[2′,3′:3,4]benzo[1,2-d]thiazol-7-yl)methyl (2-methylpyridin-4-yl)carbamate]
1.1 | COc1cc(NC(=O)OC[C@H]2COc3c(cc(C)c4nc(-c5cc(C)cc6nc(OC)cnc56)sc34)O2)ccn1 [Example 45, (R)-(2-(2-methoxy-7-methylquinoxalin-5-yl)-4-methyl-7,8-dihydro-[1,4]dioxino[2′,3′:3,4]benzo[1,2-d]thiazol-7-yl)methyl (2-methoxypyridin-4-yl)carbamate]
140 | COc1cnc2c(-c3nc4c(C)cc5c(c4s3)OC[C@H](COC(=O)Nc3ccc4ncsc4c3)O5)cc(C)cc2n1 [Example 50, (R)-(2-(2-methoxy-7-methylquinoxalin-5-yl)-4-methyl-7,8-dihydro-[1,4]dioxino[2′,3′:3,4]benzo[1,2-d]thiazol-7-yl)methyl benzo[d]thiazol-6-ylcarbamate]
16 | COc1cnc2c(-c3nc4c(C)cc5c(c4s3)OC[C@H](COC(=O)Nc3cncc(C#N)c3)O5)cc(C)cc2n1 [Example 51, (R)-(2-(2-methoxy-7-methylquinoxalin-5-yl)-4-methyl-7,8-dihydro-[1,4]dioxino[2′,3′:3,4]benzo[1,2-d]thiazol-7-yl)methyl (5-cyanopyridin-3-yl)carbamate]
1.6 | COc1cnc2c(-c3nc4c(C)cc5c(c4s3)OC[C@H](COC(=O)Nc3cnc4c(c3)ncn4C)O5)cc(C)cc2n1 [Example 54, (R)-(2-(2-methoxy-7-methylquinoxalin-5-yl)-4-methyl-7,8-dihydro-[1,4]dioxino[2′,3′:3,4]benzo[1,2-d]thiazol-7-yl)methyl (3-methyl-3H-imidazo[4,5-b]pyridin-6-yl)carbamate]
9.7 | COc1cnc2c(-c3nc4c(C)cc5c(c4s3)OC[C@H](COC(=O)Nc3cncc(C)c3)O5)cc(C)cc2n1 [Example 57, (R)-(2-(2-methoxy-7-methylquinoxalin-5-yl)-4-methyl-7,8-dihydro-[1,4]dioxino[2′,3′:3,4]benzo[1,2-d]thiazol-7-yl)methyl (5-methylpyridin-3-yl)carbamate]
